Measurements taken from paper PMC6967030, “Apparent Lack of BRAF^V600E Derived HLA Class I Presented Neoantigens Hampers Neoplastic Cell Targeting by CD8^+ T Cells in Langerhans Cell Histiocytosis” (Frontiers in Immunology, 2020).
Ends that are not written are not given here.

Key:
Experiment in all cases: Competition-based peptide-HLA class I binding assay
HLA-A*02:01 = HLA-A*02:01 (Homo sapiens, UniProt P04439, D140Y/D185E/D98H/E176V/E277Q/G131W/G231S/I119V/I121R/I166T/I218V/L300P/L318F/N151K/N90K/P208A/P217A/Q86G/Q94H/R138H/R169H/T345S); conditions: concentration that inhibits 50% binding of fluorescently-labeled standard peptide […], read-out: In vitro HLA binding affinity (IC50, nM), peptide-HLA binding assay, A*02:01
Experimental: Competition-based peptide-HLA class I binding assays were performed as previously described ([60]).

HLA-A*03:01 = HLA-A*03:01 (Homo sapiens, UniProt P04439); conditions: concentration that inhibits 50% binding of fluorescently-labeled standard peptide […], read-out: In vitro HLA binding affinity (IC50, nM), peptide-HLA binding assay, A*03:01
Experimental: (§1) Competition-based peptide-HLA class I binding assays were performed as previously described ([60]). […] The standard peptides were […] for HLA-A^*02:01 and […] for HLA-A^*03:01 and HLA-A^*11:01.

HLA-A*11:01 = HLA-A*11:01 (Homo sapiens, UniProt P04439, A114D/D185E/E176A/F33Y/L180Q/S129P/T187R); conditions: concentration that inhibits 50% binding of fluorescently-labeled standard peptide […], read-out: In vitro HLA binding affinity (IC50, nM), peptide-HLA binding assay, A*11:01
Experimental: as §1

| Sequence | IC50 (HLA-A*02:01) [nM] | IC50 (HLA-A*03:01) [nM] | IC50 (HLA-A*11:01) [nM] |
| --- | --- | --- | --- |
| KIGDFGLATE [KIGDFGLATE] | 86900 |  |  |
| KIGDFGLATEK |  | 672 | 45 |
| KIGDFGLATV | 40 |  |  |
| KIGDFGLATVK |  | 415 | 32 |
